Reference: ChEMBL document CHEMBL1147193, “New 5-substituted thiazolo[3,2-b][1,2,4]triazol-6-ones: synthesis and anticancer evaluation” (2007)

Assays:
Type in all cases: functional
[1] = Growth inhibition of human MDA-MB-231/ATCC cells after 48 hrs by SRB protein assay; settings: MDA-MB-231, 48 h
SK-MEL-5 = experiment: Growth inhibition of human SK-MEL-5 cells after 48 hrs by SRB protein assay; settings: SK-MEL-5, 48 h
M14 = experiment: Growth inhibition of human M14 cells after 48 hrs by SRB protein assay; settings: M14, 48 h
[2] = Growth inhibition of human MALME 3M cells after 48 hrs by SRB protein assay
ACHN = experiment: Growth inhibition of human ACHN cells after 48 hrs by SRB protein assay
OVCAR-8 = experiment: Growth inhibition of human OVCAR8 cells after 48 hrs by SRB protein assay; settings: OVCAR-8, 48 h
T47D = experiment: Growth inhibition of human T47D cells after 48 hrs by SRB protein assay
A549 = experiment: Growth inhibition of human A549/ATCC cells after 48 hrs by SRB protein assay; settings: A549, 48 h
NCI/ADR-RES = experiment: Growth inhibition of human NCI/ADR-RES cells after 48 hrs by SRB protein assay
RPMI-8226 = experiment: Growth inhibition of human RPMI8226 cells after 48 hrs by SRB protein assay; settings: RPMI-8226, 48 h
U-251 = experiment: Growth inhibition of human U251 cells after 48 hrs by SRB protein assay; settings: U-251, 48 h
OVCAR-5 = experiment: Growth inhibition of human OVCAR5 cells after 48 hrs by SRB protein assay; settings: OVCAR-5, 48 h
HCT-116 = experiment: Growth inhibition of human HCT116 cells after 48 hrs by SRB protein assay; settings: HCT-116, 48 h
MDA-MB-435 = experiment: Growth inhibition of human MDA-MB-435 cells after 48 hrs by SRB protein assay; settings: MDA-MB-435, 48 h
UACC-257 = experiment: Growth inhibition of human UACC257 cells after 48 hrs by SRB protein assay; settings: UACC-257, 48 h
NCI-H460 [3] = experiment: Growth inhibition of human NCI-H460 cells after 48 hrs by SRB protein assay; settings: NCI-H460, 48 h
KM12 = experiment: Growth inhibition of human KM12 cells after 48 hrs by SRB protein assay; settings: KM12, 48 h
UO-31 = experiment: Growth inhibition of human UO31 cells after 48 hrs by SRB protein assay; settings: UO-31, 48 h
SW-620 = experiment: Growth inhibition of human SW620 cells after 48 hrs by SRB protein assay; settings: SW-620, 48 h
COLO 205 = experiment: Growth inhibition of human COLO205 cells after 48 hrs by SRB protein assay; settings: COLO 205, 48 h
OVCAR-3 = experiment: Growth inhibition of human OVCAR-3 cells after 48 hrs by SRB protein assay; settings: OVCAR-3, 48 h
SF-295 = experiment: Growth inhibition of human SF295 cells after 48 hrs by SRB protein assay; settings: SF-295, 48 h
NCI-H322M = experiment: Growth inhibition of human NCI-H322M cells after 48 hrs by SRB protein assay
HT-29 = experiment: Growth inhibition of human HT29 cells after 48 hrs by SRB protein assay; settings: HT-29, 48 h
HCC 2998 = experiment: Growth inhibition of human HCC2998 cells after 48 hrs by SRB protein assay; settings: HCC 2998, 48 h
SK-MEL-2 = experiment: Growth inhibition of human SK-MEL-2 cells after 48 hrs by SRB protein assay; settings: SK-MEL-2, 48 h
MCF7 [4] = experiment: Growth inhibition of human MCF7 cells after 48 hrs by SRB protein assay; settings: MCF7, 48 h
NCI-H460 [5] = experiment: Anticancer activity against human NCI-H460 cells assessed as growth of cells at 100 uM relative to untreated cells
TK-10 = experiment: Growth inhibition of human TK10 cells after 48 hrs by SRB protein assay; settings: TK-10, 48 h
NCI-H522 = experiment: Growth inhibition of human NCI-H522 cells after 48 hrs by SRB protein assay; settings: NCI-H522, 48 h
HOP-62 = experiment: Growth inhibition of human HOP62 cells after 48 hrs by SRB protein assay; settings: HOP-62, 48 h
NCI-H226 = experiment: Growth inhibition of human NCI-H226 cells after 48 hrs by SRB protein assay; settings: NCI-H226, 48 h
SN12C = experiment: Growth inhibition of human SN12C cells after 48 hrs by SRB protein assay
PC-3 = experiment: Growth inhibition of human PC3 cells after 48 hrs by SRB protein assay; settings: PC-3, 48 h
OVCAR-4 = experiment: Growth inhibition of human OVCAR4 cells after 48 hrs by SRB protein assay; settings: OVCAR-4, 48 h
SK-MEL-28 = experiment: Growth inhibition of human SK-MEL-28 cells after 48 hrs by SRB protein assay; settings: SK-MEL-28, 48 h
BT-549 = experiment: Growth inhibition of human BT549 cells after 48 hrs by SRB protein assay; settings: BT-549, 48 h
MCF7 [6] = experiment: Anticancer activity against human MCF7 cells assessed as growth of cells at 100 uM relative to untreated cells
Hs-578T = experiment: Growth inhibition of human HS578T cells after 48 hrs by SRB protein assay

Structure (SMILES): O=c1/c(=C/c2ccc(F)cc2)sc2ncnn12
- GI50 [1]: > 100 µM
- TGI ([1]; read-out: Log TGI (converted)): > 100 µM
- GI50 (SK-MEL-5): 41.7 µM
- TGI (SK-MEL-5; read-out: Log TGI (converted)): > 100 µM
- GI50 (M14): 28.8 µM
- TGI (M14; read-out: Log TGI (converted)): > 100 µM
- GI50 [2]: > 100 µM
- TGI ([2]; read-out: Log TGI (converted)): > 100 µM
- GI50 (ACHN): 81.3 µM
- TGI (ACHN; read-out: Log TGI (converted)): > 100 µM
- GI50 (OVCAR-8): 44.7 µM
- TGI (OVCAR-8; read-out: Log TGI (converted)): > 100 µM
- GI50 (T47D): 91.2 µM
- TGI (T47D; read-out: Log TGI (converted)): > 100 µM
- GI50 (A549): 87.1 µM
- TGI (A549; read-out: Log TGI (converted)): > 100 µM
- GI50 (NCI/ADR-RES): 38 µM
- TGI (NCI/ADR-RES; read-out: Log TGI (converted)): > 100 µM
- GI50 (RPMI-8226): 26.3 µM
- TGI (RPMI-8226; read-out: Log TGI (converted)): 79.4 µM
- GI50 (U-251): 60.3 µM
- TGI (U-251; read-out: Log TGI (converted)): > 100 µM
- GI50 (OVCAR-5): 55 µM
- TGI (OVCAR-5; read-out: Log TGI (converted)): > 100 µM
- GI50 (HCT-116): 33.9 µM
- TGI (HCT-116; read-out: Log TGI (converted)): > 100 µM
- GI50 (MDA-MB-435): 37.2 µM
- TGI (MDA-MB-435; read-out: Log TGI (converted)): > 100 µM
- GI50 (UACC-257): 95.5 µM
- TGI (UACC-257; read-out: Log TGI (converted)): > 100 µM
- GI50 (NCI-H460 [3]): 61.7 µM
- TGI (NCI-H460 [3]; read-out: Log TGI (converted)): > 100 µM
- GI50 (KM12): 35.5 µM
- TGI (KM12; read-out: Log TGI (converted)): > 100 µM
- GI50 (UO-31): 69.2 µM
- TGI (UO-31; read-out: Log TGI (converted)): > 100 µM
- GI50 (SW-620): 66.1 µM
- TGI (SW-620; read-out: Log TGI (converted)): > 100 µM
- GI50 (COLO 205): 61.7 µM
- TGI (COLO 205; read-out: Log TGI (converted)): > 100 µM
- GI50 (OVCAR-3): 37.2 µM
- TGI (OVCAR-3; read-out: Log TGI (converted)): > 100 µM
- GI50 (SF-295): 52.5 µM
- TGI (SF-295; read-out: Log TGI (converted)): > 100 µM
- GI50 (NCI-H322M): > 100 µM
- TGI (NCI-H322M; read-out: Log TGI (converted)): > 100 µM
- GI50 (HT-29): 45.7 µM
- TGI (HT-29; read-out: Log TGI (converted)): > 100 µM
- GI50 (HCC 2998): 63.1 µM
- TGI (HCC 2998; read-out: Log TGI (converted)): > 100 µM
- GI50 (SK-MEL-2): > 100 µM
- TGI (SK-MEL-2; read-out: Log TGI (converted)): 51.3 µM
- GI50 (MCF7 [4]): 32.4 µM
- TGI (MCF7 [4]; read-out: Log TGI (converted)): > 100 µM
- Activity (NCI-H460 [5]): 13%
- GI50 (TK-10): > 100 µM
- TGI (TK-10; read-out: Log TGI (converted)): > 100 µM
- GI50 (NCI-H522): 50.1 µM
- TGI (NCI-H522; read-out: Log TGI (converted)): > 100 µM
- GI50 (HOP-62): 70.8 µM
- TGI (HOP-62; read-out: Log TGI (converted)): > 100 µM
- GI50 (NCI-H226): > 100 µM
- TGI (NCI-H226; read-out: Log TGI (converted)): > 100 µM
- GI50 (SN12C): 40.7 µM
- TGI (SN12C; read-out: Log TGI (converted)): > 100 µM
- GI50 (PC-3): 53.7 µM
- TGI (PC-3; read-out: Log TGI (converted)): > 100 µM
- GI50 (OVCAR-4): 34.7 µM
- TGI (OVCAR-4; read-out: Log TGI (converted)): > 100 µM
- GI50 (SK-MEL-28): 52.5 µM
- TGI (SK-MEL-28; read-out: Log TGI (converted)): > 100 µM
- GI50 (BT-549): 42.7 µM
- TGI (BT-549; read-out: Log TGI (converted)): 100 µM
- Activity (MCF7 [6]): 77%
- GI50 (Hs-578T): 69.2 µM
- TGI (Hs-578T; read-out: Log TGI (converted)): > 100 µM
